Key:
Type in all cases: in vivo, human
[1] = test system: patient with severe sarcoidosis stadium 3 and secondary pulmonary hypertension; assay: Hemodynamic parameters by right heart catheterization before and after 12 weeks VIP inhalation; details: VIP inhalation 200 μg per day
Method: (§1) A patient with severe sarcoidosis stadium 3 and secondary pulmonary hypertension was under therapy with cortocosteroids, furosemid, oxygen and an anticoagulant. Right heart catheterization (Swan-Ganz, Baxter, Irvine, Calif., USA) was performed to measure mean pulmonary artery pressure (mPAP), cardiac output (CO), mean arterial pressure (MAP), pulmonary capillary wedge pressure (PCWP) mixed venous oxygen saturation (SvO2%) and systemic arterial oxygen pressure (PaO2%) for and after treatment with VIP inhalation (200 μg in 12 ml 0.9% NaCl per day, 4×3 ml per inhalation) for 12 weeks. FEV1 (forced expiratory volume in one second), FVC (forced vital capacity), TLC (total lung capacity), AaDO2 (arterial-alveolar oxygen difference) of sarcoidosis patient is measured according to standard methods for and after treatment with VIP (200 μg in 12 ml 0.9% NaCl per day) for 12 weeks. VIP was inhaled for 12 weeks via the MicroDrop Master Jet (MPV, Truma, Germany) using a particle size of 3 μm to provide alveolar deposition of the substance.
(§2) Hemodynamic and lung function parameters of the sarcoidosis patient before and after the treatment with VIP for 12 weeks are summary in Table 2.

[2] = test system: patient with severe sarcoidosis stadium 3 and secondary pulmonary hypertension; assay: Lung function parameters before and after 12 weeks VIP inhalation; details: after treatment, VIP inhalation 200 μg per day
Method: as §1, §2

[3] = test system: patient with severe sarcoidosis stadium 3 and secondary pulmonary hypertension; assay: 6-minutes walk test
Method: as §1
In the 6-minutes walk test, the patient improved from 210 meters before treatment to 350 meters after the treatment

“His-Ser-Asp-Ala-Val-Phe-Thr-Asp-Asn-Tyr-Thr-Arg-Leu-Arg-Lys-Gln-Met-Ala-Val-Lys-Lys-Tyr-Leu-Asn-Ser-Ile-Leu-Asn [VIP]” was tested, and the CI ([1]; after treatment, before treatment 2.1) was 2.7, the “CO (cardiac output)” value ([1]; after treatment, before treatment 3.9) was 4.9 and the “PaO2 (systemic arterial oxygen pressure)” value ([1]; after treatment, before treatment 47.0) was 54.0. For the same substance, the “SvO2 (mixed venous oxygen saturation)” value ([1]; after treatment, before treatment 49.4) was 53.0, the PaCO2 ([1]; after treatment, before treatment 55.0) was 52.0 and the SaO2 ([1]; after treatment, before treatment 83.2) was 88.0. The “mAP (mean arterial pressure)” value ([1]; after treatment, before treatment 84.0) was 98.0, the “PCWP (pulmonary capillary wedge pressure)” value ([1]; first PCWP line of Table 2, after treatment, before treatment 10) was 10 and the PVR ([1]; first PVR line of Table 2, after treatment, before treatment 923) was 359. For the same substance, the “mPAP (mean pulmonary artery pressure)” value ([1]; first mPAP line of Table 2, after treatment, before treatment 55) was 32, the “PCWP (pulmonary capillary wedge pressure)” value ([1]; second PCWP line of Table 2, after treatment, before treatment 6.0) was 7.0 and the PVR ([1]; second PVR line of Table 2, after treatment, before treatment 985.0) was 313.0. For the same substance, the “mPAP (mean pulmonary artery pressure)” value ([1]; second mPAP line of Table 2, after treatment, before treatment 54.0) was 26.0, the FEV1 (forced expiratory volume in one second) ([2]; before treatment 1.2) was 1.1 L and the “FVC (forced vital capacity)” value ([2]; before treatment 1.4) was 1.3. The “TLC (total lung capacity)” value ([2]; before treatment 2.3) was 2.7, the “AaDO2 (arterial-alveolar oxygen difference)” value ([2]; before treatment 39.0) was 37.0 and the “6-minutes walk test distance” value ([3]; after the treatment with VIP for 12 weeks, 210 meters before treatment) was 350 meters. It also gave a 6-Min.WT ([3]; after treatment, VIP inhalation 200 μg per day, 12 weeks, before treatment 210) of 350.

— patent publication US7951778B2, “Use of compounds having the biological activity of vasoactive intestinal peptide for the treatment of sarcoidosis” (mondoBIOTECH AG, priority 2002, dated 2011)
